This assay in a line: anorexigenic / biological activity of the peptide (no method described).

Square brackets hold non-standard residues; d marks the D form. Peptide text beside a SMILES is read from it. pGlu = O=C1CC[C@@H](C(=O)O)N1

As to `O=C(O)CNC(=O)[C@H](Cc1c[nH]cn1)NC(=O)[C@@H]1CCC(=O)N1` [synthetic peptide, L-(pyro)glutamyl-L-histidyl-glycine] ([pGlu]-His-Gly-OH), for the setting “comparison with biogenic material isolated from urine”, the “biological activity of the synthetic peptide versus the biogenic material isolated from urine” value is given as “comparable biological activity”. Besides, the anorexigenic properties entry (statement in words, peptide found in the urine of patients suffering from severe anorexia) is reported as “possesses interesting anorexigenic properties”.

The values are drawn from patent publication US4260601A, “Chemical compounds” (Nyegaard & Co. A/S, priority 1979, dated 1981).
